Measurements published in patent US5847193A, “Labelled compound” (priority 1995, dated 1998).

Assays:
human or rat gliomacyte = conditions: cited from earlier work
rat glioma = assay: Uptake of ^11 C-labelled L-DABA into rat glioma cells in culture; format: cell-based; conditions: medium with amino acid content close to the biological one, control phosphate-buffered saline, FIG. 7
Description: Biological applicability of the ^11 C-labelled L-DABA obtained in Example 3 was evaluated. The relationship between concentration of the L-DABA added to culture medium of rat glioma and uptake of radioactivity into the glioma cells in a given duration was investigated in a medium having an amino acid content close to the biological one, and for control, in a physiological saline buffered with phosphoric acid.

[1] = Sterility and exothermic substance check of the filtered ^11 C-labelled glutamic acid product; conditions: after sterilized 0.2 μm filter
Description: NaOH of 2.5M was added to a reaction solution containing the γ-cyano-α-aminobutyric acid of which cyano group carbon being labelled with positron nuclide ^11 C, as obtained in Example 6, and temperature of the mixture was raised to 135° C. After the lapse of 15 minutes, the reaction solution was mixed with 8 ml 50 mM NaH2 PO4, and the resultant mixture was passed through an anion exchange resin (800 mg AGI-x8 200-400 mesh hydroxide form). After washing with 50 mM NaH2 PO4 in an amount of 6 ml, the reaction product was eluted with 150 mM NaH2 PO4 (pH adjusted to 2.8 with phosphoric acid), and the elute was received in a receptacle containing 150 μl 8.5% phosphoric acid. The contents were passed through a sterilized filter having a pore diameter of 0.2 μm for collection in bial.

| SMILES | incorporation into gliomacyte (human or rat gliomacyte) | other results |
| --- | --- | --- |
| NCCC(N)C(=O)O (stereo not drawn) [2,4-Diaminobutyric acid (DABA), 2,4-Diaminobutyric acid] | found to be incorporated into human or rat gliomacyte |  |
| N[C@@H](CCC(=O)O)C(=O)O [L-glutamic acid] | found to be incorporated into human or rat gliomacyte |  |
| NC(=O)CC[C@H](N)C(=O)O [L-glutamine] | found to be incorporated into human or rat gliomacyte |  |
| N[11CH2]C[C@H](N)C(=O)O [^11 C-labelled L-DABA, L-2,4-diaminobutyric acid (L-DABA) labelled with ^11 C] |  | uptake of radioactivity into the glioma cells (rat glioma): dependent on the concentration of it in culture medium |
| N[C@@H](CC[11C](=O)O)C(=O)O [^11 C-labelled glutamic acid] |  | exothermic substance [1]: no exothermic substance was detected; sterility of product [1]: germ-free |
